Experimental data as given in US12059393B2, “Compositions for topical treatment of radiation dermatitis” (Akos Biosciences, Inc, priority 2022, dated 2024).

System: acute radiation-induced dermatitis
Test: Blinded clinical dermatitis scoring in mouse radiation dermatitis model
Type: in vivo, Balb/c mice
Set-up: key to Dermatitis score (mean): dermatitis scale 0 to 5, 1.0-unit increments
Details: for Dermatitis score % Change Group 4 vs. Group 3: 30 mg/mL CBD vs olive oil only; for Dermatitis score % Change Group 4 vs. Group 2: 30 mg/mL CBD vs radiation only; for Dermatitis score (mean): Group 4 (30 mg/mL CBD)
Experimental: A study was performed on mice to determine the efficacy of topically-dosed CBD in an olive oil vehicle for the treatment of acute radiation-induced dermatitis. Three different CBD dosages were used— 30 mg/mL (3 wt %), 120 mg/mL (12 wt %), and 250 mg/mL (25 wt %).
144 female Balb/c mice with an average starting body weight (±SEM) of 17.96±0.12 grams were randomized into six (6) groups of 24 animals each, as follows:
The control group (Group 1) was not irradiated. The animals in Groups 2-6 were anesthetized via a single intraperitoneal injection of xylazine and ketamine prior to being administered a single dose of 30 Grays (Gy) of radiation directed at a 2 cm×4 cm patch of shaved dorsal skin on Day 0. Radiation was generated by a 160 kVp (15-ma) X-ray source at a focal distance of 10 cm, hardened with a 0.35 mm Cu filtration system at a rate of approximately 3.2 Gy/minute.
Dosing for animals in Groups 3-6 began on Day 0 immediately after radiation. Treatments were administered topically (0.1 mL per animal) daily from Days 0-28.
Starting on Day 8 and continuing every other day thereafter (Days 8-28), each animal was evaluated for skin redness and dermatitis, and photographed for subsequent blinded scoring of dermatitis at the completion of the study. Body weight was taken daily.
Dermatitis was measured by blinded scoring of photographs at the end of the study. Two independent observers graded the photographs, and results were reported on a scale of 0 to 5 in 1.0 unit increments. The scale is described in the table below:
Data were evaluated using one-way ANOVA with Dunnett's multiple comparisons test to compare all groups to the vehicle control group using GraphPad Prism 8.4.3 (La Jolla, CA Duration of dermatitis data was evaluated using the Chi-square test to compare all groups to the vehicle-control group and radiation only group using SigmaPlot 11.0 (Systat Software, Inc.). Statistical significance was achieved when p<0.05.
The following table provides information on the duration of moderate dermatitis, which is defined as the number of days on which scores were at least 2
Bold values indicate a decrease (improvement), and underlined values indicate an increase (worsening).

[1] = 30 mg/mL CBD, 148 total animal days
[2] = 120 mg/mL CBD, 148 total animal days
[3] = 150 mg/mL CBD, 147 total animal days

C=C(C)[C@@H]1CCC(C)=C[C@H]1c1c(O)cc(CCCCC)cc1O [CBD, 2-[(1R,6R)-6-Isopropenyl-3-methylcyclohex-2-en-1-yl]-5-pentylbenzene-1,3-diol]
% Days ≥2 (30 mg/mL CBD): 50.68% | Mean dermatitis scores compared against Group 2 (radiation only) and Group 3 (olive oil only) (30 mg/mL CBD (Group 4)): consistently decreased mean dermatitis scores | Percentage of days with moderate dermatitis compared to the Olive oil only group (Group 3) (30 mg/mL CBD (Group 4)): significantly lower | Percentages of animals with moderate or severe dermatitis (30 mg/mL CBD (Group 4), majority of surveyed days, vs olive oil only group): reduced percentages of animals with moderate or severe dermatitis | Dermatitis score % Change Group 4 vs. Group 3 (Day 8): −22.22% | Dermatitis score % Change Group 4 vs. Group 3 (Day 10): −18.75% | Dermatitis score % Change Group 4 vs. Group 3 (Day 12): −21.62% | Dermatitis score % Change Group 4 vs. Group 3 (Day 14): −20.00% | Dermatitis score % Change Group 4 vs. Group 3 (Day 16): −23.33% | Dermatitis score % Change Group 4 vs. Group 3 (Day 18): −34.62% | Dermatitis score % Change Group 4 vs. Group 3 (Day 20): −38.10% | Dermatitis score % Change Group 4 vs. Group 3 (Day 22): −17.65% | Dermatitis score % Change Group 4 vs. Group 3 (Day 24): −23.53% | Dermatitis score % Change Group 4 vs. Group 3 (Day 26): −29.41% | Dermatitis score % Change Group 4 vs. Group 3 (Day 28): −31.25% | Dermatitis score % Change Group 4 vs. Group 2 (Day 8): 101.92% | Dermatitis score % Change Group 4 vs. Group 2 (Day 10): 10.80% | Dermatitis score % Change Group 4 vs. Group 2 (Day 12): −15.04% | Dermatitis score % Change Group 4 vs. Group 2 (Day 14): −8.78% | Dermatitis score % Change Group 4 vs. Group 2 (Day 16): −29.72% | Dermatitis score % Change Group 4 vs. Group 2 (Day 18): −35.07% | Dermatitis score % Change Group 4 vs. Group 2 (Day 20): −43.25% | Dermatitis score % Change Group 4 vs. Group 2 (Day 22): −32.46% | Dermatitis score % Change Group 4 vs. Group 2 (Day 24): −40.42% | Dermatitis score % Change Group 4 vs. Group 2 (Day 26): −42.11% | Dermatitis score % Change Group 4 vs. Group 2 (Day 28): −46.93% | Percentage of Animals with Moderate Dermatitis (≥2) (30 mg/mL CBD, Day 8): 18.8% | Percentage of Animals with Moderate Dermatitis (≥3) (30 mg/mL CBD, Day 8): 0% | Percentage of Animals with Moderate Dermatitis (≥2) (30 mg/mL CBD, Day 10): 75% | Percentage of Animals with Moderate Dermatitis (≥3) (30 mg/mL CBD, Day 10): 6.3% | Percentage of Animals with Moderate Dermatitis (≥2) (30 mg/mL CBD, Day 12): 81.3% | Percentage of Animals with Moderate Dermatitis (≥3) (30 mg/mL CBD, Day 12): 18.8% | Percentage of Animals with Moderate Dermatitis (≥2) (30 mg/mL CBD, Day 14): 75% | Percentage of Animals with Moderate Dermatitis (≥3) (30 mg/mL CBD, Day 14): 56.3% | Percentage of Animals with Moderate Dermatitis (≥2) (30 mg/mL CBD, Day 16): 75% | Percentage of Animals with Moderate Dermatitis (≥3) (30 mg/mL CBD, Day 16): 41.7% | Percentage of Animals with Moderate Dermatitis (≥2) (30 mg/mL CBD, Day 18): 66.7% | Percentage of Animals with Moderate Dermatitis (≥3) (30 mg/mL CBD, Day 18): 0% | Percentage of Animals with Moderate Dermatitis (≥2) (30 mg/mL CBD, Day 20): 33.3% | Percentage of Animals with Moderate Dermatitis (≥3) (30 mg/mL CBD, Day 20): 0% | Percentage of Animals with Moderate Dermatitis (≥2) (30 mg/mL CBD, Day 22): 47.7% | Percentage of Animals with Moderate Dermatitis (≥3) (30 mg/mL CBD, Day 22): 0% | Percentage of Animals with Moderate Dermatitis (≥2) (30 mg/mL CBD, Day 24): 33.3% | Percentage of Animals with Moderate Dermatitis (≥3) (30 mg/mL CBD, Day 24): 0% | Percentage of Animals with Moderate Dermatitis (≥2) (30 mg/mL CBD, Day 26): 25% | Percentage of Animals with Moderate Dermatitis (≥3) (30 mg/mL CBD, Day 26): 0% | Percentage of Animals with Moderate Dermatitis (≥2) (30 mg/mL CBD, Day 28): 16.7% | Percentage of Animals with Moderate Dermatitis (≥3) (30 mg/mL CBD, Day 28): 0% | Days <2 (animal days) [1]: 73 | Days ≥2 (duration of moderate dermatitis, animal days) [1]: 75 | % Days ≥2 (120 mg/mL CBD): 59.46% | Percentage of Animals with Moderate Dermatitis (≥2) (120 mg/mL CBD, Day 8): 18.8% | Percentage of Animals with Moderate Dermatitis (≥3) (120 mg/mL CBD, Day 8): 0% | Percentage of Animals with Moderate Dermatitis (≥2) (120 mg/mL CBD, Day 10): 87.5% | Percentage of Animals with Moderate Dermatitis (≥3) (120 mg/mL CBD, Day 10): 6.3% | Percentage of Animals with Moderate Dermatitis (≥2) (120 mg/mL CBD, Day 12): 93.8% | Percentage of Animals with Moderate Dermatitis (≥3) (120 mg/mL CBD, Day 12): 50% | Percentage of Animals with Moderate Dermatitis (≥2) (120 mg/mL CBD, Day 14): 100% | Percentage of Animals with Moderate Dermatitis (≥3) (120 mg/mL CBD, Day 14): 75% | Percentage of Animals with Moderate Dermatitis (≥2) (120 mg/mL CBD, Day 16): 83.3% | Percentage of Animals with Moderate Dermatitis (≥3) (120 mg/mL CBD, Day 16): 25% | Percentage of Animals with Moderate Dermatitis (≥2) (120 mg/mL CBD, Day 18): 83.3% | Percentage of Animals with Moderate Dermatitis (≥3) (120 mg/mL CBD, Day 18): 8.3% | Percentage of Animals with Moderate Dermatitis (≥2) (120 mg/mL CBD, Day 20): 58.3% | Percentage of Animals with Moderate Dermatitis (≥3) (120 mg/mL CBD, Day 20): 0% | Percentage of Animals with Moderate Dermatitis (≥2) (120 mg/mL CBD, Day 22): 33.3% | Percentage of Animals with Moderate Dermatitis (≥3) (120 mg/mL CBD, Day 22): 0% | Percentage of Animals with Moderate Dermatitis (≥2) (120 mg/mL CBD, Day 24): 33.3% | Percentage of Animals with Moderate Dermatitis (≥3) (120 mg/mL CBD, Day 24): 0% | Percentage of Animals with Moderate Dermatitis (≥2) (120 mg/mL CBD, Day 26): 33.3% | Percentage of Animals with Moderate Dermatitis (≥3) (120 mg/mL CBD, Day 26): 0% | Percentage of Animals with Moderate Dermatitis (≥2) (120 mg/mL CBD, Day 28): 8.3% | Percentage of Animals with Moderate Dermatitis (≥3) (120 mg/mL CBD, Day 28): 0% | Days <2 (animal days) [2]: 60 | Days ≥2 (duration of moderate dermatitis, animal days) [2]: 88 | Days <2 (animal days) [3]: 57 | Days ≥2 (duration of moderate dermatitis, animal days) [3]: 90 | Percentage of Animals with Moderate Dermatitis (≥2) (250 mg/mL CBD, Day 8): 12.5% | Percentage of Animals with Moderate Dermatitis (≥3) (250 mg/mL CBD, Day 8): 6.3% | Percentage of Animals with Moderate Dermatitis (≥2) (250 mg/mL CBD, Day 10): 75% | Percentage of Animals with Moderate Dermatitis (≥3) (250 mg/mL CBD, Day 10): 12.5% | Percentage of Animals with Moderate Dermatitis (≥2) (250 mg/mL CBD, Day 12): 100% | Percentage of Animals with Moderate Dermatitis (≥3) (250 mg/mL CBD, Day 12): 62.5% | Percentage of Animals with Moderate Dermatitis (≥2) (250 mg/mL CBD, Day 14): 93.8% | Percentage of Animals with Moderate Dermatitis (≥3) (250 mg/mL CBD, Day 14): 93.3% | Percentage of Animals with Moderate Dermatitis (≥2) (250 mg/mL CBD, Day 16): 93.7% | Percentage of Animals with Moderate Dermatitis (≥3) (250 mg/mL CBD, Day 16): 75% | Percentage of Animals with Moderate Dermatitis (≥2) (250 mg/mL CBD, Day 18): 83.3% | Percentage of Animals with Moderate Dermatitis (≥3) (250 mg/mL CBD, Day 18): 58.3% | Percentage of Animals with Moderate Dermatitis (≥2) (250 mg/mL CBD, Day 20): 66.7% | Percentage of Animals with Moderate Dermatitis (≥3) (250 mg/mL CBD, Day 20): 25% | Percentage of Animals with Moderate Dermatitis (≥2) (250 mg/mL CBD, Day 22): 33.3% | Percentage of Animals with Moderate Dermatitis (≥3) (250 mg/mL CBD, Day 22): 0% | Percentage of Animals with Moderate Dermatitis (≥2) (250 mg/mL CBD, Day 24): 50% | Percentage of Animals with Moderate Dermatitis (≥3) (250 mg/mL CBD, Day 24): 0% | Percentage of Animals with Moderate Dermatitis (≥2) (250 mg/mL CBD, Day 26): 50% | Percentage of Animals with Moderate Dermatitis (≥3) (250 mg/mL CBD, Day 26): 0% | Percentage of Animals with Moderate Dermatitis (≥2) (250 mg/mL CBD, Day 28): 0% | Percentage of Animals with Moderate Dermatitis (≥3) (250 mg/mL CBD, Day 28): 0% | Dermatitis score (mean) (Day 8): 0.88 | Dermatitis score (mean) (Day 10): 1.63 | Dermatitis score (mean) (Day 12): 1.81 | Dermatitis score (mean) (Day 14): 2.25 | Dermatitis score (mean) (Day 16): 1.92 | Dermatitis score (mean) (Day 18): 1.42 | Dermatitis score (mean) (Day 20): 1.08 | Dermatitis score (mean) (Day 22): 1.17 | Dermatitis score (mean) (Day 24): 1.08 | Dermatitis score (mean) (Day 26): 1.00 | Dermatitis score (mean) (Day 28): 0.92 | Percentage of days with moderate dermatitis compared to the irradiated group (Group 2) (all CBD-treated groups (Groups 4, 5, 6)): significantly lower
